Entries after “also recorded” stand apart in the source; their conditions may differ. Where two headings read alike, the source gives them in different places.

Data set [1] can be described thus: Half-life in culture media by loss of cancer cell killing activity. Conditions: determined by loss of cancer cell killing activity (data not shown), read-out: t1/2 in the culture media (converted). It is filed as in vitro ADME. The source says:
We will modify ADAR1i-124 and derive ADAR1i-124 analogs with higher potency (higher affinity binding and lower IC50) ready to be tested for animal model studies (next section).

Data set [2] concerns HeLa cells. The data set can be described thus: Cell death mechanism, Annexin V apoptosis marker, HeLa. In kind it is cell-based, human. From the text: (§1) FIGS. 10A-10C show ADAR1i-124 kills cancer cells via different cell death mechanism. (FIG. 10A) Differential expression of ADAR1p150 and ADAR1p110 in cancer cells. […] Annexin V and pMLKL were used as apoptosis and necroptosis markers, respectively. At least 200 cells were examined. Data: mean±SD (n=3). Significant differences were identified by two tailed Student's t-tests: *P<0.05, n.s., not significant. […] We plan to evaluate ADAR1 inhibitors in vivo in mouse tumor model systems by using these mouse cancer cell lines.
(§2) Thus, ADAR1i-124 has the potential to act as a “two birds with one stone” cancer therapeutic.

Data set [3] deals with HGS2 cells. In words: qRT-PCR of ISG expression (IFN signaling), HGS2. Conditions: HGS2, 10 μM, 12 hrs. It is filed as cell-based, mouse. How it is done:
(§3) FIGS. 9A-9C show dose-dependent killing of cancer cells and activation of IFN signaling. […] YUMM1.7 (FIG. 9B) and HGS2 cells (FIG. 9C) were treated with ADAR1i-124 at 10 μM (12 hrs). RNA samples were analyzed by qRT-PCR to monitor ISG expression levels. Data: mean±SD (n=3). Significant differences were identified by two-tailed Student's t-tests: ***P<0.001.

Data set [4] relates to human and mouse melanoma (telomerase reactivated) cell lines. In words: Suppression of melanoma cell lines, comparison of inhibitors (not shown). In kind it is cell-based. On the procedure:
(§4) Dose-dependent selective killing of telomerase reactivated cancer cells was determined (FIG. 9A).

Data set [5] has as its system mouse melanoma and ovarian cancer cells. In words: Killing of mouse melanoma and ovarian cancer cells (FIG. 10C). In kind it is cell-based.
Description: as §1

The conditions of data set [6]: mouse, in vivo, ip.
In data set [7] the test system is YUMM1.7 cells. The data set can be described thus: qRT-PCR of ISG expression (IFN signaling), YUMM1.7. In kind it is cell-based, mouse. As to conditions: YUMM1.7, 10 μM, 12 hrs. On the procedure:
as §3, §4
A general note: In qPCR the cycle at which signal appears reflects the starting amount.

Data set [8] concerns YUMM1.7 cells. In words: Cell death mechanism, pMLKL necroptosis marker, YUMM1.7. As to conditions: YUMM1.7, pMLKL marker. It is filed as cell-based, mouse.
Description: as §1, §2

For data set [9], the system named is Z-RNA. In words: Z-RNA formation. In kind it is cell-based. The source says:
FIGS. 7A-7C show analysis of ADAR1i-13 and analogs. […] IC50 values determined by dose-dependent in vitro editing assay are shown for ADAR1 inhibition positive compounds. […] Dumbbell-shaped dsRNA has been reported to form Z-RNA conformation and act as a strong IFN signaling activation triggers. ADAR1p150 mediated A-to-I editing suppresses Z-RNA structure transition and activation of IFN signaling.

Data set [10] concerns WM3000 PDX melanoma cell line. In words: Dose-dependent killing, WM3000. It is filed as cell-based. As to conditions: human PDX melanoma cell line. How it is done:
as §3
Treatments and analysis. The efficacy of ADAR1i alone or combining with αPD1 Ab for suppression of tumor growth will be assessed as described in the previous section (Aim 2-1). We have at our disposal the largest collection (>500) of clinically and genetically annotated melanoma PDX. […] We will use the human melanoma cell lines/PDXs in subcutaneous tumor assays in the hu-BLT mice. Human melanomas will be established in the hu-BLT mice and randomized into 4 treatment groups (n=5 per group): 1) ADAR1i alone, 2) αPD-1 Ab alone, 3) combination ADAR1i/αPD-1, 4) control IgG. Tumor volumes and overall survival will be determined as described in the previous section (Aim 2-1). Tumors will be biopsied and blood collected at interval periods (at EOT, e.g. 7 days, at TTR, and at EOS) and analyzed for hallmark melanoma features as above. […]

Data set [11] relates to HSG2. In words: Dose-dependent killing, HSG2. In kind it is cell-based. As to conditions: mouse non-ALT cancer cells. On the procedure: as §3

`N#Cc1ccc(NC(=O)c2c(Cl)c3ccccc3n2CO)cc1` [ADAR1i-124]: in data set [1], the half-life was around 12 h. The Induction of apoptosis entry in [2] is recorded as “induced apoptosis; also recorded: killed via apoptosis”. Moreover, the “ISG expression / IFN signaling activation” value in data set [3] is “Activation of the IFN signaling”; in [7] it was “upregulated expression of interferon stimulated genes (ISGs) including MDA5, CXCL9, and CXCL10; also recorded: upregulated expression of known ISGs; also recorded: activated type I IFN signaling; also recorded: Activation of the IFN signaling”. Besides, the “Suppression of human and mouse melanoma cell lines relative to other inhibitors” value in data set [4] is “more efficiently than ADAR1i-13 and ADAR1i-120”. Further, in [5], the “Killing of mouse melanoma and ovarian cancer cells” value was “dose-dependently and efficiently killed”. Moreover, the Well tolerated dose entry in data set [6] and in data set [6] (5 days) was “up to 50 mg/kg” throughout. The Induction of necroptosis result in data set [8] is on record as “induced necroptosis; also recorded: killed via necroptosis”. In data set [9], the Z-RNA formation entry is given as “induces formation of Z-RNAs”. Besides, in [10], the “Killing of WM3000 cells” value is on record as “killed one PDX melanoma cell line, WM3000, in a dose-dependent manner; also recorded: dose-dependently killed”. Moreover, in data set [11], the “Killing of HSG2 cells” value is “dose-dependently killed”.

For the origin of these results see patent publication US20260272878A1, “ADAR1 INHIBITORS AND USES THEREOF” (THE WISTAR INSTITUTE OF ANATOMY AND BIOLOGY, priority 2023, published 2026).
